Source: patent US12049450B2, “Pyridyloxy-carboxylate derivative and preparation method therefor, herbicidal composition, and use” (Qingdao Kingagroot Chemical Compound Co., Ltd., priority 2018, dated 2024)

Key:
Assay in all cases: Post-emergence test experiment (greenhouse pot, spray at 2-3 leaf stage)
Format in all cases: in vivo
Conditions in all cases: 1000 g/ha; post-emergence spray at 2-3 leaf stage; assessed after 3 weeks; fresh weight inhibition rate
Echinochloa crusgalli = tested on: Echinochloa crusgalli
Procedure, shortened: (§1)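 Activity graded levels 0-5 by fresh-weight inhibition (level 5 above 85%, level 0 below 5%), assessed 3 weeks after treatment. Plants grown in greenhouse pots were sprayed post-emergence at 2-3 leaves using acetone/tween-80 solutions with methyl oleate synergist (1.5 L/ha).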

Monochoria vaginalis = tested on: Monochoria vaginalis
Procedure, shortened: as §1

Galium spurium = tested on: Galium spurium
Procedure, shortened: as §1

Abutilon theophrasti = tested on: Abutilon theophrasti
Procedure, shortened: as §1

Digitaria sanguinalis = tested on: Digitaria sanguinalis
Procedure, shortened: as §1

Row | Structure (SMILES) | Activity level (growth inhibition rate) Echinochloa crusgalli (Echinochloa crusgalli) | Activity level (growth inhibition rate) Monochoria Vaginalis (Monochoria vaginalis) | Activity level (growth inhibition rate) Galium spurium (Galium spurium) | Activity level (growth inhibition rate) Abutilon theophrasti (Abutilon theophrasti) | Activity level (growth inhibition rate) Digitaria sanguinalis (Digitaria sanguinalis)
1 | CC(Oc1nc(F)c(Cl)c(N)c1Cl)C(=O)OCc1cccc(CC(N)=O)c1 (stereo not shown) [Compound 101] | 5 (Level 5: the growth inhibition rate is greater than 85%) | 5 (Level 5: the growth inhibition rate is greater than 85%) | 5 (Level 5: the growth inhibition rate is greater than 85%) | 5 (Level 5: the growth inhibition rate is greater than 85%) | 5 (Level 5: the growth inhibition rate is greater than 85%)
2 | CC(Oc1nc(F)c(Cl)c(N)c1Cl)C(=O)OCc1ccc(C2CC2Cl)cc1 (stereo not shown) [Compound 102] | 5 (Level 5: the growth inhibition rate is greater than 85%) | 5 (Level 5: the growth inhibition rate is greater than 85%) | 5 (Level 5: the growth inhibition rate is greater than 85%) | 5 (Level 5: the growth inhibition rate is greater than 85%) | 5 (Level 5: the growth inhibition rate is greater than 85%)
3 | CCC(=O)Cc1ccc(CSC(=O)C(C)Oc2nc(F)c(Cl)c(N)c2Cl)cc1 (stereo not shown) [Compound 103] | 5 (Level 5: the growth inhibition rate is greater than 85%) | 5 (Level 5: the growth inhibition rate is greater than 85%) | 5 (Level 5: the growth inhibition rate is greater than 85%) | 5 (Level 5: the growth inhibition rate is greater than 85%) | 5 (Level 5: the growth inhibition rate is greater than 85%)
4 | CC(=O)c1ccc(CCSC(=O)C(C)Oc2nc(F)c(Cl)c(N)c2Cl)cc1 (stereo not shown) [Compound 104] | 5 (Level 5: the growth inhibition rate is greater than 85%) | 5 (Level 5: the growth inhibition rate is greater than 85%) | 5 (Level 5: the growth inhibition rate is greater than 85%) | 5 (Level 5: the growth inhibition rate is greater than 85%) | 5 (Level 5: the growth inhibition rate is greater than 85%)
5 | CC(Oc1nc(F)c(Cl)c(N)c1Cl)C(=O)OCc1ccc(S(C)(=O)=O)cc1 (stereo not shown) [Compound 105] | 5 (Level 5: the growth inhibition rate is greater than 85%) | 5 (Level 5: the growth inhibition rate is greater than 85%) | 5 (Level 5: the growth inhibition rate is greater than 85%) | 5 (Level 5: the growth inhibition rate is greater than 85%) | 5 (Level 5: the growth inhibition rate is greater than 85%)
6 | COC(=O)Nc1cccc(CCOC(=O)C(C)Oc2nc(F)c(Cl)c(N)c2Cl)c1 (stereo not shown) [Compound 107] | 5 (Level 5: the growth inhibition rate is greater than 85%) | 5 (Level 5: the growth inhibition rate is greater than 85%) | 5 (Level 5: the growth inhibition rate is greater than 85%) | 5 (Level 5: the growth inhibition rate is greater than 85%) | 5 (Level 5: the growth inhibition rate is greater than 85%)
7 | CC(Oc1nc(F)c(Cl)c(N)c1Cl)C(=O)OCc1cnccn1 (stereo not shown) [Compound 121] | 5 (Level 5: the growth inhibition rate is greater than 85%) | 5 (Level 5: the growth inhibition rate is greater than 85%) | 5 (Level 5: the growth inhibition rate is greater than 85%) | 5 (Level 5: the growth inhibition rate is greater than 85%) | 5 (Level 5: the growth inhibition rate is greater than 85%)
8 | CC(Oc1nc(F)c(Cl)c(N)c1Cl)C(=O)OCc1cccnn1 (stereo not shown) [Compound 122] | 5 (Level 5: the growth inhibition rate is greater than 85%) | 5 (Level 5: the growth inhibition rate is greater than 85%) | 5 (Level 5: the growth inhibition rate is greater than 85%) | 5 (Level 5: the growth inhibition rate is greater than 85%) | 5 (Level 5: the growth inhibition rate is greater than 85%)
9 | CC(Oc1nc(F)c(Cl)c(N)c1Cl)C(=O)SCc1ccnnc1 (stereo not shown) [Compound 123] | 5 (Level 5: the growth inhibition rate is greater than 85%) | 5 (Level 5: the growth inhibition rate is greater than 85%) | 5 (Level 5: the growth inhibition rate is greater than 85%) | 5 (Level 5: the growth inhibition rate is greater than 85%) | 5 (Level 5: the growth inhibition rate is greater than 85%)
10 | CC(Oc1nc(F)c(Cl)c(N)c1Cl)C(=O)OCc1cncnc1 (stereo not shown) [Compound 124] | 5 (Level 5: the growth inhibition rate is greater than 85%) | 5 (Level 5: the growth inhibition rate is greater than 85%) | 5 (Level 5: the growth inhibition rate is greater than 85%) | 5 (Level 5: the growth inhibition rate is greater than 85%) | 5 (Level 5: the growth inhibition rate is greater than 85%)
11 | CC(Oc1nc(F)c(Cl)c(N)c1Cl)C(=O)SCCc1ccncn1 (stereo not shown) [Compound 125] | 5 (Level 5: the growth inhibition rate is greater than 85%) | 5 (Level 5: the growth inhibition rate is greater than 85%) | 5 (Level 5: the growth inhibition rate is greater than 85%) | 5 (Level 5: the growth inhibition rate is greater than 85%) | 5 (Level 5: the growth inhibition rate is greater than 85%)
12 | CC(Oc1nc(F)c(Cl)c(N)c1Cl)C(=O)OCc1ncncn1 (stereo not shown) [Compound 126] | 5 (Level 5: the growth inhibition rate is greater than 85%) | 5 (Level 5: the growth inhibition rate is greater than 85%) | 5 (Level 5: the growth inhibition rate is greater than 85%) | 5 (Level 5: the growth inhibition rate is greater than 85%) | 5 (Level 5: the growth inhibition rate is greater than 85%)
13 | Cc1cc(COC(=O)C(C)Oc2nc(F)c(Cl)c(N)c2Cl)n(C)n1 (stereo not shown) [Compound 127] | 5 (Level 5: the growth inhibition rate is greater than 85%) | 5 (Level 5: the growth inhibition rate is greater than 85%) | 5 (Level 5: the growth inhibition rate is greater than 85%) | 5 (Level 5: the growth inhibition rate is greater than 85%) | 5 (Level 5: the growth inhibition rate is greater than 85%)
14 | CC(Oc1nc(F)c(Cl)c(N)c1Cl)C(=O)OCc1cn(C)cn1 (stereo not shown) [Compound 129] | 5 (Level 5: the growth inhibition rate is greater than 85%) | 5 (Level 5: the growth inhibition rate is greater than 85%) | 5 (Level 5: the growth inhibition rate is greater than 85%) | 5 (Level 5: the growth inhibition rate is greater than 85%) | 5 (Level 5: the growth inhibition rate is greater than 85%)
15 | CC(Oc1nc(F)c(Cl)c(N)c1Cl)C(=O)OCc1nccn1C (stereo not shown) [Compound 130] | 5 (Level 5: the growth inhibition rate is greater than 85%) | 5 (Level 5: the growth inhibition rate is greater than 85%) | 5 (Level 5: the growth inhibition rate is greater than 85%) | 5 (Level 5: the growth inhibition rate is greater than 85%) | 5 (Level 5: the growth inhibition rate is greater than 85%)
16 | CC(Oc1nc(F)c(Cl)c(N)c1Cl)C(=O)OCc1cncn1C (stereo not shown) [Compound 131] | 5 (Level 5: the growth inhibition rate is greater than 85%) | 5 (Level 5: the growth inhibition rate is greater than 85%) | 5 (Level 5: the growth inhibition rate is greater than 85%) | 5 (Level 5: the growth inhibition rate is greater than 85%) | 5 (Level 5: the growth inhibition rate is greater than 85%)
17 | CC(Oc1nc(F)c(Cl)c(N)c1Cl)C(=O)SCc1ccnn1C (stereo not shown) [Compound 132] | 5 (Level 5: the growth inhibition rate is greater than 85%) | 5 (Level 5: the growth inhibition rate is greater than 85%) | 5 (Level 5: the growth inhibition rate is greater than 85%) | 5 (Level 5: the growth inhibition rate is greater than 85%) | 5 (Level 5: the growth inhibition rate is greater than 85%)
